Measurements from article PMC5218480 (PLoS ONE, 2017).

Test system: MV-4-11 cells
Experiment: Gene expression microarray analysis (Affymetrix PrimeView) and GSEA
Type: cell-based, human
Design: RFU PODN (11730768_x_at) / Fold change /veh PODN (11730768_x_at) / RFU LINC00158 (11744669_a_at) / Fold change /veh LINC00158 (11744669_a_at) / RFU DUSP10 (11751237_a_at) / Fold change /veh DUSP10 (11751237_a_at) / RFU ID3 (11757404_x_at) / Fold change /veh ID3 (11757404_x_at) / RFU PLEKHG5 (11737974_s_at) / Fold change /veh PLEKHG5 (11737974_s_at) / RFU LRRC4B (11730491_at) / Fold change /veh LRRC4B (11730491_at) / RFU GIMAP4 (11747438_a_at) / Fold change /veh GIMAP4 (11747438_a_at) / RFU KRT8 (11758183_x_at) / Fold change /veh KRT8 (11758183_x_at) / RFU CNN1 (11734310_a_at) / Fold change /veh CNN1 (11734310_a_at) / RFU VPS37D (11726825_at) / Fold change /veh VPS37D (11726825_at) / RFU C10orf10 (11716522_x_at) / Fold change /veh C10orf10 (11716522_x_at) / RFU KIR2DL2 /// KIR2DL4 /// KIR2DL5A /// KIR2DL5B /// KIR2DS1 /// KIR2DS2 /// KIR2DS3 /// KIR2DS4 /// KIR3DL3 /// KIR3DL3 /// KIR3DS1 (11738374_at) / Fold change /veh KIR2DL2 /// KIR2DL4 /// KIR2DL5A /// KIR2DL5B /// KIR2DS1 /// KIR2DS2 /// KIR2DS3 /// KIR2DS4 /// KIR3DL3 /// KIR3DL3 /// KIR3DS1 (11738374_at) / RFU C1QL1 (11718748_at) / Fold change /veh C1QL1 (11718748_at) / RFU TMPRSS4 (11747572_a_at) / Fold change /veh TMPRSS4 (11747572_a_at) / RFU HAMP (11756126_x_at) / Fold change /veh HAMP (11756126_x_at) / RFU RNFT2 (11725882_a_at) / Fold change /veh RNFT2 (11725882_a_at) / RFU NR4A2 (11747474_a_at) / Fold change /veh NR4A2 (11747474_a_at) / RFU ABCC12 (11746883_a_at) / Fold change /veh ABCC12 (11746883_a_at) / RFU TMEM136 (11760407_x_at) / Fold change /veh TMEM136 (11760407_x_at) / RFU CLDN22 /// WWC2 (11732394_at) / Fold change /veh CLDN22 /// WWC2 (11732394_at) / RFU HLA-DPB1 (11760878_x_at) / Fold change /veh HLA-DPB1 (11760878_x_at) / RFU SPINT1 (11716480_a_at) / Fold change /veh SPINT1 (11716480_a_at) / RFU GAP43 (11754022_s_at) / Fold change /veh GAP43 (11754022_s_at) / RFU A4GNT (11735810_at) / Fold change /veh A4GNT (11735810_at) / RFU PRB3 (11715151_x_at) / Fold change /veh PRB3 (11715151_x_at) / RFU TUBB4B (11761932_at) / Fold change /veh TUBB4B (11761932_at) / RFU CAPN14 (11732068_a_at) / Fold change /veh CAPN14 (11732068_a_at) / RFU TMCC2 (11721928_a_at) / Fold change /veh TMCC2 (11721928_a_at) / RFU IRGQ (11745062_a_at) / Fold change /veh IRGQ (11745062_a_at) / RFU FAM174B (11720279_a_at) / Fold change /veh FAM174B (11720279_a_at) / RFU TMPRSS4 (11748680_a_at) / Fold change /veh TMPRSS4 (11748680_a_at) / RFU FAM212B (11763350_a_at) / Fold change /veh FAM212B (11763350_a_at) / RFU PLEKHG5 (11743358_a_at) / Fold change /veh PLEKHG5 (11743358_a_at) / RFU ZSCAN30 (11745921_a_at) / Fold change /veh ZSCAN30 (11745921_a_at) / RFU CMKLR1 (11741424_a_at) / Fold change /veh CMKLR1 (11741424_a_at) / RFU LOC101060620 /// MAPK8IP1 (11723275_at) / Fold change /veh LOC101060620 /// MAPK8IP1 (11723275_at) / RFU SPTSSB (11747773_x_at) / Fold change /veh SPTSSB (11747773_x_at) / RFU PRSS12 (11739890_at) / Fold change /veh PRSS12 (11739890_at) / RFU BIN1 (11741810_x_at) / Fold change /veh BIN1 (11741810_x_at) / RFU WNT11 (11732464_a_at) / Fold change /veh WNT11 (11732464_a_at) / RFU C10orf10 (11716521_a_at) / Fold change /veh C10orf10 (11716521_a_at) / RFU C5orf56 (11738089_at) / Fold change /veh C5orf56 (11738089_at) / RFU CYB561 (11721691_x_at) / Fold change /veh CYB561 (11721691_x_at) / RFU ANKRD19P (11752326_a_at) / Fold change /veh ANKRD19P (11752326_a_at) / RFU OR2T12 /// OR2T33 /// OR2T8 (11738714_s_at) / Fold change /veh OR2T12 /// OR2T33 /// OR2T8 (11738714_s_at) / RFU VCAN (11748164_a_at) / Fold change /veh VCAN (11748164_a_at) / RFU JSRP1 (11732532_at) / Fold change /veh JSRP1 (11732532_at) / RFU KRTAP10-11 (11738290_x_at) / Fold change /veh KRTAP10-11 (11738290_x_at) / RFU MYO3A (11730013_a_at) / Fold change /veh MYO3A (11730013_a_at) / RFU EBF3 (11725865_a_at) / Fold change /veh EBF3 (11725865_a_at) / RFU CAMK2N1 (11719241_x_at) / Fold change /veh CAMK2N1 (11719241_x_at) / RFU C5orf56 (11738088_a_at) / Fold change /veh C5orf56 (11738088_a_at) / RFU OLFML3 (11715873_a_at) / Fold change /veh OLFML3 (11715873_a_at) / RFU LOC100653217 /// NTM (11731650_a_at) / Fold change /veh LOC100653217 /// NTM (11731650_a_at) / RFU MAPK11 (11762145_a_at) / Fold change /veh MAPK11 (11762145_a_at) / RFU FIZ1 (11724087_x_at) / Fold change /veh FIZ1 (11724087_x_at) / RFU OASL (11726364_x_at) / Fold change /veh OASL (11726364_x_at) / RFU SOX15 (11748057_x_at) / Fold change /veh SOX15 (11748057_x_at) / RFU CD79A (11719716_a_at) / Fold change /veh CD79A (11719716_a_at) / RFU HIST1H1D (11736915_at) / Fold change /veh HIST1H1D (11736915_at) / RFU CASKIN2 (11723855_a_at) / Fold change /veh CASKIN2 (11723855_a_at) / RFU LOC730098 (11760151_x_at) / Fold change /veh LOC730098 (11760151_x_at) / RFU OR4N2 (11742367_at) / Fold change /veh OR4N2 (11742367_at) / RFU PRRT2 (11749266_a_at) / Fold change /veh PRRT2 (11749266_a_at) / RFU SNX32 (11753110_a_at) / Fold change /veh SNX32 (11753110_a_at) / RFU CDHR5 (11726645_a_at) / Fold change /veh CDHR5 (11726645_a_at) / RFU RCAN1 (11760418_a_at) / Fold change /veh RCAN1 (11760418_a_at) / RFU FAM167A (11723789_a_at) / Fold change /veh FAM167A (11723789_a_at) / RFU FAM26E (11764081_at) / Fold change /veh FAM26E (11764081_at) / RFU ISYNA1 (11749810_s_at) / Fold change /veh ISYNA1 (11749810_s_at) / RFU ACY1 (11761880_at) / Fold change /veh ACY1 (11761880_at) / RFU 11764098_at / Fold change /veh 11764098_at / RFU SAMD14 (11745864_x_at) / Fold change /veh SAMD14 (11745864_x_at) / RFU NPB (11741838_a_at) / Fold change /veh NPB (11741838_a_at) / RFU TMPRSS6 (11731388_a_at) / Fold change /veh TMPRSS6 (11731388_a_at) / RFU KRTAP10-2 (11738614_at) / Fold change /veh KRTAP10-2 (11738614_at) / RFU ARHGAP8 /// PRR5-ARHGAP8 (11727945_x_at) / Fold change /veh ARHGAP8 /// PRR5-ARHGAP8 (11727945_x_at) / RFU KRTAP5-7 /// NADSYN1 (11734609_at) / Fold change /veh KRTAP5-7 /// NADSYN1 (11734609_at) / RFU RASL12 (11751679_a_at) / Fold change /veh RASL12 (11751679_a_at) / RFU CDKN2B (11736163_a_at) / Fold change /veh CDKN2B (11736163_a_at) / RFU PRF1 (11729649_at) / Fold change /veh PRF1 (11729649_at) / RFU, ZNF638 /// ZNF638-IT1 / Fold change vs veh, ZNF638 /// ZNF638-IT1 / RFU, PANK3 / Fold change vs veh, PANK3 / RFU, SH3YL1 / Fold change vs veh, SH3YL1 / RFU, ZEB2 / Fold change vs veh, ZEB2 / RFU, NRIP1 / Fold change vs veh, NRIP1 / RFU, PTTG1IP / Fold change vs veh, PTTG1IP / RFU, CAPN2 / Fold change vs veh, CAPN2 / RFU, MED14 / Fold change vs veh, MED14 / RFU, SNORA58 / Fold change vs veh, SNORA58 / RFU, C1orf63 / Fold change vs veh, C1orf63 / RFU, LRRFIP1 / Fold change vs veh, LRRFIP1 / RFU, NDUFAF7 / Fold change vs veh, NDUFAF7 / RFU, SLC12A2 / Fold change vs veh, SLC12A2 / RFU, IBTK / Fold change vs veh, IBTK / RFU, ESF1 / Fold change vs veh, ESF1 / Fold change vs veh, TMEM50B / RFU, TAOK1 / Fold change vs veh, TAOK1 / RFU, ACBD3 / Fold change vs veh, ACBD3 / RFU, TMA16 / Fold change vs veh, TMA16 / RFU, RWDD3 / Fold change vs veh, RWDD3 / RFU, BCAT1 / Fold change vs veh, BCAT1 / RFU, EDEM3 / Fold change vs veh, EDEM3 / RFU, TMEM33 / Fold change vs veh, TMEM33 / RFU, WDR75 / Fold change vs veh, WDR75 / RFU, AHCTF1 / Fold change vs veh, AHCTF1 / RFU, TFRC / Fold change vs veh, TFRC / RFU, ZDHHC17 / Fold change vs veh, ZDHHC17 / RFU, NOM1 / Fold change vs veh, NOM1 / RFU, ARL8B / Fold change vs veh, ARL8B / RFU, ZBTB11 / Fold change vs veh, ZBTB11 / RFU, TAMM41 / Fold change vs veh, TAMM41 / RFU, KIAA1704 /// LOC100996395 / Fold change vs veh, KIAA1704 /// LOC100996395 / RFU, ING1 / Fold change vs veh, ING1 / RFU, TRMT61B / Fold change vs veh, TRMT61B / RFU, FUBP3 / Fold change vs veh, FUBP3 / RFU, TP53 / Fold change vs veh, TP53 / RFU, TNKS2 / Fold change vs veh, TNKS2 / RFU, ZFP14 / Fold change vs veh, ZFP14 / RFU, ACTR2 / Fold change vs veh, ACTR2 / RFU, PPP3R1 / Fold change vs veh, PPP3R1 / RFU, PIK3R1 / Fold change vs veh, PIK3R1 / RFU, HNRNPA1 / Fold change vs veh, HNRNPA1 / RFU, RNF170 / Fold change vs veh, RNF170 / RFU, ZNF28 / Fold change vs veh, ZNF28 / RFU, RNGTT / Fold change vs veh, RNGTT / RFU, OGT / Fold change vs veh, OGT / RFU, BRD1 / Fold change vs veh, BRD1 / RFU, MARS / Fold change vs veh, MARS / RFU, ZNF655 / Fold change vs veh, ZNF655 / RFU, FAHD1 / Fold change vs veh, FAHD1 / RFU, BDP1 / Fold change vs veh, BDP1 / RFU, LRRCC1 / Fold change vs veh, LRRCC1 / RFU, ARID1A / Fold change vs veh, ARID1A / RFU, ZNF146 / Fold change vs veh, ZNF146 / RFU, ZNF330 / Fold change vs veh, ZNF330 / RFU, GPN3 / Fold change vs veh, GPN3 / RFU, C9orf123 / Fold change vs veh, C9orf123 / RFU, N4BP2L2 / Fold change vs veh, N4BP2L2 / RFU, ARFIP1 / Fold change vs veh, ARFIP1 / RFU, FAM179B / Fold change vs veh, FAM179B / RFU, BCL10 / Fold change vs veh, BCL10 / RFU, UHRF1BP1L / Fold change vs veh, UHRF1BP1L / RFU, BET1 / Fold change vs veh, BET1 / RFU, CNOT2 / Fold change vs veh, CNOT2 / RFU, ZNF268 / Fold change vs veh, ZNF268 / Fold change vs veh, ZNF507 / RFU, DGCR2 / Fold change vs veh, DGCR2 / RFU, WDSUB1 / Fold change vs veh, WDSUB1 / Fold change vs veh, HSP90B1 /// MIR3652 / RFU, ADSS / Fold change vs veh, ADSS / RFU, GK / Fold change vs veh, GK / RFU, ZNF148 / Fold change vs veh, ZNF148 / RFU, TAF9 / Fold change vs veh, TAF9 / RFU, SLC1A5 / Fold change vs veh, SLC1A5 / RFU, SLMO2 / Fold change vs veh, SLMO2 / RFU, ABCC4 / Fold change vs veh, ABCC4 / RFU, LOC101060439 /// RAP1B / Fold change vs veh, LOC101060439 /// RAP1B / RFU, RFX7 / Fold change vs veh, RFX7 / RFU, GTPBP10 / Fold change vs veh, GTPBP10 / RFU, CNEP1R1 / Fold change vs veh, CNEP1R1 / RFU, BIVM-ERCC5 /// ERCC5 / Fold change vs veh, BIVM-ERCC5 /// ERCC5 / RFU, ILF3 / Fold change vs veh, ILF3 / RFU 11762660_at / Fold change /veh 11762660_at / RFU VCAN (11757783_s_at) / Fold change /veh VCAN (11757783_s_at) / RFU DDX43 (11728927_at) / Fold change /veh DDX43 (11728927_at) / RFU KRT8 (11758188_x_at) / Fold change /veh KRT8 (11758188_x_at) / RFU NKD1 (11759106_at) / Fold change /veh NKD1 (11759106_at) / RFU SRD5A1 (11742802_a_at) / Fold change /veh SRD5A1 (11742802_a_at) / RFU TPSAB1 /// TPSB2 (11721975_s_at) / Fold change /veh TPSAB1 /// TPSB2 (11721975_s_at) / RFU GSTM3 (11746129_a_at) / Fold change /veh GSTM3 (11746129_a_at) / RFU IL23R (11737362_x_at) / Fold change /veh IL23R (11737362_x_at) / RFU TMEM51 (11727254_a_at) / Fold change /veh TMEM51 (11727254_a_at) / RFU PIWIL2 (11732686_x_at) / Fold change /veh PIWIL2 (11732686_x_at) / RFU ORM1 (11744905_x_at) / Fold change /veh ORM1 (11744905_x_at) / RFU CCDC152 (11743942_at) / Fold change /veh CCDC152 (11743942_at) / RFU ECM1 (11717891_a_at) / Fold change /veh ECM1 (11717891_a_at) / RFU IL23R (11748794_a_at) / Fold change /veh IL23R (11748794_a_at) / RFU TNFAIP8L3 (11732012_x_at) / Fold change /veh TNFAIP8L3 (11732012_x_at) / RFU MBOAT4 (11741988_at) / Fold change /veh MBOAT4 (11741988_at) / RFU 11764193_at / Fold change /veh 11764193_at / RFU TMEM53 (11763286_at) / Fold change /veh TMEM53 (11763286_at) / RFU MAGEB2 (11727129_at) / Fold change /veh MAGEB2 (11727129_at) / RFU TMEM200A (11744735_a_at) / Fold change /veh TMEM200A (11744735_a_at) / RFU CCDC152 (11751479_a_at) / Fold change /veh CCDC152 (11751479_a_at) / RFU FAM211A (11726209_a_at) / Fold change /veh FAM211A (11726209_a_at) / RFU RGS16 (11746705_a_at) / Fold change /veh RGS16 (11746705_a_at) / RFU VCAN (11755009_s_at) / Fold change /veh VCAN (11755009_s_at) / RFU RHOB (11743442_s_at) / Fold change /veh RHOB (11743442_s_at) / RFU RGS16 (11720943_a_at) / Fold change /veh RGS16 (11720943_a_at) / RFU RGS16 (11720944_at) / Fold change /veh RGS16 (11720944_at) / RFU, VPS4B / Fold change vs veh, VPS4B / RFU, CREB1 / Fold change vs veh, CREB1 / RFU, DNAJC13 / Fold change vs veh, DNAJC13 / RFU, GNAQ / Fold change vs veh, GNAQ / RFU, CDK5R1 / Fold change vs veh, CDK5R1 / RFU, ZRANB3 / Fold change vs veh, ZRANB3 / RFU, CUL4A / Fold change vs veh, CUL4A / RFU, CCNY / Fold change vs veh, CCNY / RFU, UFL1 / Fold change vs veh, UFL1 / RFU, COG3 / Fold change vs veh, COG3 / RFU, DIAPH2 / Fold change vs veh, DIAPH2 / RFU, SKA2 / Fold change vs veh, SKA2 / RFU, AFF3 / Fold change vs veh, AFF3 / RFU, LMF1 / Fold change vs veh, LMF1 / RFU, IPO11 / Fold change vs veh, IPO11 / RFU, DFFB / Fold change vs veh, DFFB / RFU, FOXP1 / Fold change vs veh, FOXP1 / RFU, CARD8 / Fold change vs veh, CARD8 / RFU, STRN3 / Fold change vs veh, STRN3 / RFU, ADK / Fold change vs veh, ADK / RFU, RASSF2 / Fold change vs veh, RASSF2 / RFU, WIPF1 / Fold change vs veh, WIPF1 / RFU, LARP1B / Fold change vs veh, LARP1B / RFU, RASA1 / Fold change vs veh, RASA1 / RFU, RB1 / Fold change vs veh, RB1 / RFU, PPFIA1 / Fold change vs veh, PPFIA1 / RFU, MAT2A / Fold change vs veh, MAT2A / RFU, CCT5 / Fold change vs veh, CCT5 / RFU, WDR92 / Fold change vs veh, WDR92 / RFU, CUX1 / Fold change vs veh, CUX1 / RFU, TTC7A / Fold change vs veh, TTC7A / RFU, TMEM135 / Fold change vs veh, TMEM135 / RFU, DEPTOR / Fold change vs veh, DEPTOR / RFU, CPM / Fold change vs veh, CPM / RFU, DNAJB6 / Fold change vs veh, DNAJB6 / RFU, CACNA2D3 / Fold change vs veh, CACNA2D3 / RFU, DTX4 / Fold change vs veh, DTX4 / RFU, TFCP2 / Fold change vs veh, TFCP2 / RFU, GMCL1 /// GMCL1P1 / Fold change vs veh, GMCL1 /// GMCL1P1 / RFU, AEBP2 / Fold change vs veh, AEBP2 / RFU, SNHG1 /// SNORD22 /// SNORD25 /// SNORD26 /// SNORD27 /// SNORD28 /// SNORD29 /// SNORD31 / Fold change vs veh, SNHG1 /// SNORD22 /// SNORD25 /// SNORD26 /// SNORD27 /// SNORD28 /// SNORD29 /// SNORD31 / Fold change (Aza/veh), C12orf56 (ProbeSet 11735607_a_at) / Fold change (ACY-1035/veh), C12orf56 (ProbeSet 11735607_a_at) / Fold change (Aza/veh), FGFR1OP (ProbeSet 11751329_s_at) / Fold change (ACY-1035/veh), FGFR1OP (ProbeSet 11751329_s_at) / Fold change (Aza/veh), VPS36 (ProbeSet 11739960_a_at) / Fold change (ACY-1035/veh), VPS36 (ProbeSet 11739960_a_at) / RFU SYPL1 (11715823_x_at) / Fold change /veh SYPL1 (11715823_x_at) / RFU IGFBP7 (11715501_s_at) / Fold change /veh IGFBP7 (11715501_s_at) / RFU REEP3 (11722064_at) / Fold change /veh REEP3 (11722064_at) / RFU IGLL1 (11728026_x_at) / Fold change /veh IGLL1 (11728026_x_at): dose or concentration left out as unconfirmed
Conditions: MV-4-11 cells, 48 hours

## Nc1ccc(-c2cccs2)cc1NC(=O)c1ccc2c(c1)cc(C1CC1)n2CCN1CCOCC1 [ACY-1035]
  Fold change /veh VCAN (11757783_s_at): 1.01
